Drawing on PubChem BioAssay AID280 (DTP/NCI, 2004), this text covers T/C for eleven compounds.

In the experiment the test system is nude mice, LOX melanoma ip, survival T/C. As to the kind of experiment: NCI In Vivo Anticancer Drug Screen. Data for tumor model Human Amelanotic Melanoma (LOX) (intraperitoneal) in NU/NU BALB/C (nude) mice. The following applies: endpoint: median survival time, higher = longer survival. As to the method: The antitumor activity of compounds was measured in mice bearing transplantable tumors. Survival or tumor size were measured and the results are expressed as the measurement made in the treated group (T) divided by the measurement made in the vehicle treated control group (C). The tumor model used in this assay is Human Amelanotic Melanoma (LOX) (intraperitoneal) in NU/NU BALB/C (nude) mice

[1] abbreviates: dose: 75.0 mg/kg/injection, schedule: Q04DX003 (ip), vehicle: suspension in saline.
[2] abbreviates: dose: 150.0 mg/kg/injection, schedule: Q04DX003 (ip), vehicle: suspension in saline.
The mark [3] stands for this setting: dose: 300.0 mg/kg/injection, schedule: Q04DX003 (ip), vehicle: suspension in saline.

Several values for one entry are separate records, joined by “and”; a condition that tells them apart may be missing. Equal entries are not always repeated. Toxic doses and inconclusive results are not listed.

For the compound `COC1CC2C=C(C)/C=C/C=C/C(=O)NC(c3ccccc3)C/C=C/CCC(O)CC(=O)C2=C1O` (stereo not given), the T/C by setting is: (dose: 18.75 mg/kg/injection, schedule: Q04DX003 (ip), vehicle: Klucel (hydroxypropylcellulose) (HPC)) 112 % of control; (dose: 37.5 mg/kg/injection, schedule: Q04DX003 (ip), vehicle: Klucel (hydroxypropylcellulose) (HPC)) 187 % of control.

On to `Cn1cc(C2NC(=O)c3ccccc3N2)c2ccccc21` (stereo not given), for which the T/C (dose: 75.0 mg/kg/injection, schedule: Q04DX003 (ip), vehicle: Klucel (hydroxypropylcellulose) (HPC)) was 110 % of control and 100 % of control; the T/C (dose: 150.0 mg/kg/injection, schedule: Q04DX003 (ip), vehicle: Klucel (hydroxypropylcellulose) (HPC)) was 106 % of control and 122 % of control; the T/C (dose: 300.0 mg/kg/injection, schedule: Q04DX003 (ip), vehicle: Klucel (hydroxypropylcellulose) (HPC)) is 110 % of control and 94 % of control.

For `O=C(/C=C/c1cccnc1)/C=C/c1cccnc1`, the T/C runs as follows: (dose: 6.25 mg/kg/injection, schedule: Q04DX003 (ip), vehicle: Klucel (hydroxypropylcellulose) (HPC)) 104 % of control; (dose: 12.5 mg/kg/injection, schedule: Q04DX003 (ip), vehicle: Klucel (hydroxypropylcellulose) (HPC)) 105 % of control; (dose: 25.0 mg/kg/injection, schedule: Q04DX003 (ip), vehicle: Klucel (hydroxypropylcellulose) (HPC)) 111 % of control; (dose: 50.0 mg/kg/injection, schedule: Q04DX003 (ip), vehicle: Klucel (hydroxypropylcellulose) (HPC)) 116 % of control; (dose: 100.0 mg/kg/injection, schedule: Q04DX003 (ip), vehicle: Klucel (hydroxypropylcellulose) (HPC)) 88 % of control.

In the case of `COc1ccc2c(c1)-c1nn(CCCN(C)C)c3ccc([N+](=O)[O-])c(c13)N2`, the T/C was 116 % of control (dose: 5.8 mg/kg/injection, schedule: Q04HX006 (ip), vehicle: water); 119 % of control (dose: 8.8 mg/kg/injection, schedule: Q04HX006 (ip), vehicle: water); 117 % of control (dose: 13.3 mg/kg/injection, schedule: Q04DX003 (ip), vehicle: water); 123 % of control and 96 % of control (dose: 13.3 mg/kg/injection, schedule: Q04HX006 (ip), vehicle: water); 113 % of control (dose: 19.8 mg/kg/injection, schedule: Q04DX003 (ip), vehicle: water); 123 % of control (dose: 19.8 mg/kg/injection, schedule: Q04HX006 (ip), vehicle: water). Moreover, the T/C (dose: 21.0 mg/kg/injection, schedule: Q04DX003 (ip), vehicle: water) was 107 % of control; the T/C (dose: 21.6 mg/kg/injection, schedule: Q04DX003 (ip), vehicle: water) was 103 % of control; the T/C (dose: 29.7 mg/kg/injection, schedule: Q04DX003 (ip), vehicle: water) is 114 % of control; the T/C (dose: 29.7 mg/kg/injection, schedule: Q04HX006 (ip), vehicle: water) is 123 % of control; the T/C (dose: 36.0 mg/kg/injection, schedule: Q04DX003 (ip), vehicle: water) was 114 % of control and 93 % of control; the T/C (dose: 44.5 mg/kg/injection, schedule: Q04DX003 (ip), vehicle: water) is 114 % of control and 117 % of control. Also, the T/C by setting is: (dose: 44.5 mg/kg/injection, schedule: Q04HX006 (ip), vehicle: water) 122 % of control; (dose: 60.0 mg/kg/injection, schedule: Q04DX003 (ip), vehicle: water) 109 % of control and 114 % of control; (dose: 66.7 mg/kg/injection, schedule: Q04DX003 (ip), vehicle: water) 118 % of control.

With `Oc1cccc2ccccc12`, the T/C runs as follows: (dose: 18.75 mg/kg/injection, schedule: Q04DX003 (ip), vehicle: water) 98 % of control; (dose: 37.5 mg/kg/injection, schedule: Q04DX003 (ip), vehicle: water) 102 % of control; (dose: 75.0 mg/kg/injection, schedule: Q04DX003 (ip), vehicle: water) 106 % of control; (dose: 150.0 mg/kg/injection, schedule: Q04DX003 (ip), vehicle: water) 102 % of control.

`COc1cc2c(c(OC)c1O)-c1ccc(OC)c(=O)cc1[C@@H](NC(=O)C(F)(F)F)CC2`: the T/C (dose: 2.5 mg/kg/injection, schedule: Q04DX003 (ip), vehicle: Klucel (hydroxypropylcellulose) (HPC)) was 122 % of control.

In the case of `Nc1nc2n[nH]nc2c(=O)[nH]1`, the T/C reads like this: (dose: 37.5 mg/kg/injection, schedule: Q04DX003 (ip), vehicle: suspension in saline) 164 % of control; under setting [1], 177 % of control; under setting [2], 217 % of control; under setting [3], 251 % of control.

Turning to `Cc1c(N)nc([C@H](CC(N)=O)NC[C@H](N)C(N)=O)nc1C(=O)N[C@H](C(=O)N[C@H](C)[C@@H](O)[C@H](C)C(=O)N[C@H](C(=O)NCCc1nc(-c2nc(C(=O)NCCC[S+](C)C)cs2)cs1)[C@@H](C)O)C(OC1OC(CO)C(O)C(O)C1OC1OC(CO)C(O)C(OC(N)=O)C1O)c1cnc[nH]1` (stereo not given in full), the T/C was 165 % of control (dose: 2.0 mg/kg/injection, schedule: Q01DX015 (ip), vehicle: saline); 155 % of control (dose: 4.0 mg/kg/injection, schedule: Q01DX005 (ip), vehicle: saline); 159 % of control (dose: 4.0 mg/kg/injection, schedule: Q01DX015 (ip), vehicle: saline); 175 % of control (dose: 8.0 mg/kg/injection, schedule: Q01DX005 (ip), vehicle: saline); 176 % of control (dose: 8.0 mg/kg/injection, schedule: Q01DX015 (ip), vehicle: saline); 160 % of control (dose: 8.0 mg/kg/injection, schedule: Q04DX003 (ip), vehicle: saline). Also, the T/C (dose: 16.0 mg/kg/injection, schedule: Q01DX015 (ip), vehicle: saline) was 87 % of control; the T/C (dose: 24.0 mg/kg/injection, schedule: Q04DX003 (ip), vehicle: saline) was 110 % of control; the T/C (dose: 32.0 mg/kg/injection, schedule: Q01DX001 (ip), vehicle: saline) is 150 % of control; the T/C (dose: 32.0 mg/kg/injection, schedule: Q01DX005 (ip), vehicle: saline) was 175 % of control; the T/C (dose: 32.0 mg/kg/injection, schedule: Q04DX003 (ip), vehicle: saline) is 176 % of control; the T/C (dose: 36.0 mg/kg/injection, schedule: Q04DX003 (ip), vehicle: saline) was 105 % of control. The T/C is 151 % of control (dose: 64.0 mg/kg/injection, schedule: Q01DX001 (ip), vehicle: saline) and 150 % of control (dose: 128.0 mg/kg/injection, schedule: Q01DX001 (ip), vehicle: saline).

Regarding `Cc1ccccc1N=C(c1ccccc1)C1C(=O)c2ccccc2C1=O`, the T/C reads like this: (dose: 75.0 mg/kg/injection, schedule: Q04DX003 (ip), vehicle: DMSO) 101 % of control; (dose: 75.0 mg/kg/injection, schedule: Q04DX003 (ip), vehicle: other) 105 % of control; (dose: 150.0 mg/kg/injection, schedule: Q04DX003 (ip), vehicle: DMSO) 109 % of control; (dose: 150.0 mg/kg/injection, schedule: Q04DX003 (ip), vehicle: other) 93 % of control; (dose: 300.0 mg/kg/injection, schedule: Q04DX003 (ip), vehicle: DMSO) 101 % of control; (dose: 300.0 mg/kg/injection, schedule: Q04DX003 (ip), vehicle: other) 103 % of control. For the same compound, the T/C runs as follows: (dose: 600.0 mg/kg/injection, schedule: Q04DX003 (ip), vehicle: DMSO) 103 % of control; (dose: 600.0 mg/kg/injection, schedule: Q04DX003 (ip), vehicle: other) 103 % of control; (dose: 1200.0 mg/kg/injection, schedule: Q04DX003 (ip), vehicle: DMSO) 99 % of control; (dose: 1200.0 mg/kg/injection, schedule: Q04DX003 (ip), vehicle: other) 102 % of control.

As to `COc1ccc(/C=C\c2cc(OC)c(OC)c(OC)c2)c(O)c1O`, the T/C reads like this: (dose: 6.25 mg/kg/injection, schedule: Q04DX003 (ip), vehicle: saline + Tween-80 + alcohol) 97 % of control; (dose: 12.5 mg/kg/injection, schedule: Q04DX003 (ip), vehicle: saline + Tween-80 + alcohol) 110 % of control; (dose: 25.0 mg/kg/injection, schedule: Q04DX003 (ip), vehicle: saline + Tween-80 + alcohol) 124 % of control.

As to `CN(C)C(=O)Nc1ccc(Cl)cc1`, the T/C is, setting by setting: under setting [1], 118 % of control; under setting [2], 102 % of control; under setting [3], 102 % of control; (dose: 600.0 mg/kg/injection, schedule: Q04DX003 (ip), vehicle: suspension in saline) 102 % of control.
